Like-named read-outs stand apart in the source and are kept apart here.
How the values were obtained:
Assay type in all cases: cell-based
NF-κB = test: Test for an Activity of Inhibiting NF-κB Activation (gel shift assay, UVB-irradiated human epidermal cells); conditions: light or radiation study, read-out: inhibitory rate (%) of NF-κB activation; for inhibition at 1000 µM: concentration 1 mM; for inhibition at 2000 µM: concentration 2 mM; for inhibition at 10 µM: concentration 10 μM; for inhibition at 50 µM: concentration 50 μM
Procedure: Test for an Activity of Inhibiting NF-κB Activation
(§1) Eighteen hours later, the culture solution was replaced with a phenol red-free medium. The cells were subjected to UV irradiation (UVB: 50 mJ/m^2)using Dermaray M-DMR-80 (supplied by Toshiba Iryo Yohin KK). After from 4 to 5 hours passed, the cells were recovered, and the nucleoproteins were extracted in a usual manner. With respect to the resulting nucleoproteins, NF-κB activated by gel shift assay was detected. The amount of NF-κB was determined by measuring a radioactivity of an NF-κB band using a bio-imaging analyzer BAS 2000 (supplied by Fuji Photo Film). The rate of inhibition of NF-κB activation on the test compound was calculated using formula (III).
Rate (%) of inhibition of NF-κB activation={1−(A1−A3)/(A2−A3)}×100 (III)
A1: radioactivity of an NF-κB band in the addition of the test compound
A2: radioactivity of an NF-κB band in the non-addition of the test compound
A3: radioactivity of an NF-κB band when the test compound was not added, nor was UV irradiation conducted

collagenase = test: Test for an Activity of Inhibiting Collagenase Expression (MMP-1 ELISA, UVA-irradiated human dermal fibroblasts); conditions: Fibroblast, light or radiation study, 24 h, read-out: inhibitory rate (%) of collagenase expression; for inhibition at 10 µM: concentration 10 μM
Procedure: Test for an Activity of Inhibiting Collagenase Expression
(§2) The test compound was added to human dermal fibroblasts which had become confluent in a culture plate. Eighteen hours later, the culture solution was replaced with a phenol red-free medium. The cells were subjected to UV irradiation (UVA; 20 J/cm^2) using Dermaray M-DMR-80 (supplied by Toshiba Iryo Yohin KK). After 24 hours passed, the culture solution was recovered, and the collagenase concentration in the culture solution was measured using MMP-1α·ELISA System (supplied by Amersham Corp.). The rate of inhibition of collagenase expression on the test compound was calculated using formula (VI).
Rate (%) of inhibition of collagenase expression={1−(B4−B6)/(B5−B6)}×100 (VI)
B4: collagenase concentration in the addition of the test compound
B5: collagenase concentration in the non-addition of the test compound
B6: collagenase concentration when the test compound was not added, nor was UV irradiation conducted

AP-1 = test: Test for an Activity of Inhibiting AP-1 Activation (gel shift assay, UVA-irradiated human dermal fibroblasts); conditions: AP1, light or radiation study, read-out: inhibitory rate (%) of AP-1 activation; for inhibition at 1 µM: concentration 1 μM; for inhibition at 500 µM: concentration 0.5 mM
Procedure: Test for an Activity of Inhibiting AP-1 Activation
as §1, with “The test compound was added to human dermal fibroblasts which had become confluent in a culture plate. Eighteen” for “Eighteen”, “(UVA: 20 J/cm^2) using” for “(UVB: 50 mJ/m^2)using”, “AP-1” for “NF-κB”, “(IV).” for “(III).”
Rate (%) of inhibition of AP-1 activation={1−(A4−A6)/(A5−A6)}×100 (IV)
A4: radioactivity of an AP-1 band in the addition of the test compound
A5: radioactivity of an AP-1 band in the non-addition of the test compound
A6: radioactivity of an AP-1 band when the test compound was not added, nor was UV irradiation conducted

IL-1α = test: Test for an Activity of Inhibiting IL-1α Expression (ELISA, UVB-irradiated human epidermal cells); conditions: light or radiation study, 24 h, read-out: inhibitory rate (%) of IL-1α expression; for inhibition at 20 µM: concentration 20 μM; for inhibition at 50 µM: concentration 50 μM; for inhibition at 10 µM: concentration 10 μM; for inhibition at 500 µM: concentration 0.5 mM; for inhibition at 1000 µM: concentration 1 mM; for inhibition at 10000 µM: concentration 10 mM
Procedure: Test for an Activity of Inhibiting IL-1α Expression
as §2, with “epidermal cells” for “dermal fibroblasts”, “(UVB: 50 mJ/cm^2)” for “(UVA; 20 J/cm^2)”, “IL-1α” for “collagenase”, “IL-1α·ELISA” for “MMP-1α·ELISA”, “(V).” for “(VI).”
Rate (%) of inhibition of IL-1α expression={1−(B1−B3)/(B2−B3)}×100 (V)
B1: IL-1α concentration in the addition of the test compound
B2: IL-1α concentration in the non-addition of the test compound
B3: IL-1α concentration when the test compound was not added, nor was UV irradiation conducted

## CCOC(=O)[C@@H](C)NCc1ccccc1O [N-(2-hydroxybenzyl)-D-alanine ethyl ester]
NF-κB
  inhibition at 1000 µM: 90%
  inhibition at 2000 µM: 87%
collagenase; concentration 0.5 mM
  inhibition at 500 µM: 108%

## CCCCCCCCCCCCNC(=O)[C@@H](C)NCc1ccccc1O [N-(2-hydroxybenzyl)-D-alanine lauryl amide]
NF-κB
  inhibition at 10 µM: 29%
  inhibition at 50 µM: 97%
AP-1
  inhibition at 1 µM: 14%
AP-1; concentration 20 μM
  inhibition at 20 µM: 31%
IL-1α
  inhibition at 20 µM: 25%
  inhibition at 50 µM: 79%

## CCCCCCCCCCCCOC(=O)[C@@H](C)NCc1ccccc1O [N-(2-hydroxybenzyl)-D-alanine lauryl ester]
NF-κB
  inhibition at 50 µM: 60%
NF-κB; concentration 100 μM
  inhibition at 100 µM: 59%
IL-1α
  inhibition at 10 µM: 35%
  inhibition at 50 µM: 31%

## CCNC(=O)[C@H](C)NCc1ccccc1O [N-(2-hydroxybenzyl)-L-alanine ethyl amide]
NF-κB
  inhibition at 1000 µM: 43%
  inhibition at 2000 µM: 26%
AP-1; concentration 1 mM
  inhibition at 1000 µM: 52%
AP-1; concentration 2 mM
  inhibition at 2000 µM: 131%
IL-1α
  inhibition at 500 µM: 81%
  inhibition at 1000 µM: 99%

## CCOC(=O)[C@H](C)NCc1ccccc1O [N-(2-hydroxybenzyl)-L-alanine ethyl ester]
NF-κB; concentration 0.2 mM
  inhibition at 200 µM: 68%
NF-κB
  inhibition at 2000 µM: 77%
AP-1
  inhibition at 500 µM: 26%
IL-1α; concentration 0.2 mM
  inhibition at 200 µM: 61%
IL-1α; concentration 2 mM
  inhibition at 2000 µM: 100%

## CC(C)OC(=O)[C@H](C)NCc1ccccc1O [N-(2-hydroxybenzyl)-L-alanine isopropyl ester]
AP-1; concentration 0.1 mM
  inhibition at 100 µM: 20%
AP-1
  inhibition at 500 µM: 35%
IL-1α; concentration 0.1 mM
  inhibition at 100 µM: 36%
IL-1α
  inhibition at 1000 µM: 53%

## C[C@H](NCc1ccccc1O)C(=O)O [N-(2-hydroxybenzyl)-L-alanine]
NF-κB
  inhibition at 1000 µM: 20%
IL-1α; concentration 1 μM
  inhibition at 1 µM: 14%
IL-1α
  inhibition at 10 µM: 100%

## CCOC(=O)[C@H](CCCNC(=N)N)NCc1ccccc1O [N-(2-hydroxybenzyl)-L-arginine ethyl ester]
IL-1α
  inhibition at 500 µM: 65%

## CCCCCCCCCCCCNC(=O)[C@H](CCCNC(=N)N)NCc1ccccc1O [N-(2-hydroxybenzyl)-L-arginine lauryl amide]
NF-κB
  inhibition at 10 µM: 16%
  inhibition at 50 µM: 28%

## CCCCCCCCCCCCOC(=O)[C@H](CCCNC(=N)N)NCc1ccccc1O [N-(2-hydroxybenzyl)-L-arginine lauryl ester]
collagenase
  inhibition at 10 µM: 52%

## CCOC(=O)[C@H](CC(C)C)NCc1ccccc1O [N-(2-hydroxybenzyl)-L-leucine ethyl ester]
NF-κB
  inhibition at 1000 µM: 84%
  inhibition at 2000 µM: 57%

## CCCCCCCCCCCCOC(=O)[C@H](CC(C)C)NCc1ccccc1O [N-(2-hydroxybenzyl)-L-leucine lauryl ester]
NF-κB
  inhibition at 10 µM: 21%
NF-κB; concentration 20 μM
  inhibition at 20 µM: 23%
collagenase
  inhibition at 10 µM: 21%

## CCOC(=O)[C@H](Cc1ccccc1)NCc1ccccc1O [N-(2-hydroxybenzyl)-L-phenylalanine ethyl ester]
IL-1α; concentration 0.1 mM
  inhibition at 100 µM: 25%

## CCOC(=O)[C@@H]1CCC(=O)N1Cc1ccccc1O [N-(2-hydroxybenzyl)-L-pyroglutamic acid ethyl ester]
NF-κB
  inhibition at 1000 µM: 53%
  inhibition at 2000 µM: 85%
IL-1α
  inhibition at 500 µM: 84%
  inhibition at 1000 µM: 55%

## CCCCCCCCCCCCOC(=O)[C@H](CO)NCc1ccccc1O [N-(2-hydroxybenzyl)-L-serine lauryl ester]
NF-κB
  inhibition at 50 µM: 79%
AP-1
  inhibition at 1 µM: 43%
AP-1; concentration 10 μM
  inhibition at 10 µM: 49%
IL-1α
  inhibition at 10 µM: 12%
IL-1α; concentration 100 μM
  inhibition at 100 µM: 31%

## O=C(O)[C@H](CO)NCc1ccccc1O [N-(2-hydroxybenzyl)-L-serine]
NF-κB; concentration 10 mM
  inhibition at 10000 µM: 17%
NF-κB; concentration 30 mM
  inhibition at 30000 µM: 34%
IL-1α
  inhibition at 10000 µM: 62%
IL-1α; concentration 30 mM
  inhibition at 30000 µM: 70%

## CCNC(=O)[C@H](Cc1ccc(O)cc1)NCc1ccccc1O [N-(2-hydroxybenzyl)-L-tyrosine ethyl amide]
NF-κB
  inhibition at 1000 µM: 72%
  inhibition at 2000 µM: 28%

## CCOC(=O)[C@H](Cc1ccc(O)cc1)NCc1ccccc1O [N-(2-hydroxybenzyl)-L-tyrosine ethyl ester]
NF-κB; concentration 0.1 mM
  inhibition at 100 µM: 64%
NF-κB; concentration 0.5 mM
  inhibition at 500 µM: 81%

## CCOC(=O)CNCc1ccccc1O [N-(2-hydroxybenzyl)glycine ethyl ester]
collagenase
  inhibition at 10 µM: 39%
collagenase; concentration 100 μM
  inhibition at 100 µM: 46%

## CCCCCCCCCCCCNC(=O)CNCc1ccccc1O [N-(2-hydroxybenzyl)glycine lauryl amide]
IL-1α
  inhibition at 20 µM: 13%
  inhibition at 50 µM: 45%

## O=C(O)CNCc1ccccc1O [N-(2-hydroxybenzyl)glycine]
NF-κB; concentration 5 mM
  inhibition at 5000 µM: 36%
IL-1α; concentration 5 mM
  inhibition at 5000 µM: 26%
IL-1α
  inhibition at 10000 µM: 88%

## S=C(S)N1CCCC1 [pyrrolidinedithiocarbamate, reference compound]
NF-κB; concentration 5 μM
  inhibition at 5 µM: -9%
NF-κB
  inhibition at 10 µM: 9%
IL-1α; concentration 5 μM
  inhibition at 5 µM: -45%
